According to US11517530B2, “Therapeutic agents specifically delivered by exosomes for cancer treatment” (The Board of Trustees of the Leland Stanford Junior …, priority 2017, dated 2022):

How the values were obtained:
[1] = earlier PK/PD studies; cited from earlier work
[2] = tested on: orthotopically implanted BT474 tumors; assay: In vivo assay for EXO-DEPT EV functionality, tumor growth; parameters: species or system nu/nu mice; conditions: 2×10^9 EVs i.p., CNOB 3.3 mg/kg i.v.
Protocol: In vivo assays for EXO-DEPT EV functionality. All animal experiments were performed in accordance with protocols approved by Stanford University Institutional Animal Care and Use Committee. Number of mice required for this study was determined by power analysis using the G*Power 3.1.5 power calculator (Universitat Dusseldorf) for F-tests of one-way ANOVA by setting Type I error at 5% (alpha=0.05); power was kept at 0.8, and the number of treatment groups=5. The effect size f was calculated as 0.707. This number was then used to determine total sample size of 30 with 6 mice per treatment group (n=6). […] Tumor size was monitored by caliper at two-day intervals, and tumor volume was calculated using the formula: tumor width^2×its length/2. […]
The effect of administration of EXO-DEPT EVs along with CNOB was tested on orthotopically implanted BT474 tumors in athymic mice; the treatment schedule (FIG. 4E) was guided by earlier PK/PD studies. […] After measurable implanted tumors in mice were detected, they were randomly allocated into 5 treatment groups (n=6): untreated; loaded EVs only; CNOB only; undirected loaded EVs+CNOB; and EXO-DEPT-EVs+CNOB. […]
Each mouse was measured at nine time periods, days 0,3,7,11,16,19,24,28,32. A linear regression of tumor burden versus day was fit for each mouse, by ordinary least squares, and its slope calculated. s[i]=slope of mouse[i]'s linear regression

[3] = tested on: 4T1 murine mammary cells that endogenously generated HChrR6 enzyme; conditions: initial studies; cited from earlier work

Row | Structure (SMILES) | half-life in plasma [1] [h] | tumor growth ([2]; versus controls) | mean slope of linear regression of tumor burden versus day ([2]; days 0-32) | survival of mice [3]
1 | Nc1ccc2nc3c4ccccc4c(=O)c(Cl)c-3oc2c1 [MCHB, 9-p amino-6-chloro-5H-benzo′a″phenoxazine-5-one] | 8.3 |  |  | 
2 | O=c1c(Cl)c2oc3cc([N+](=O)[O-])ccc3nc-2c2ccccc12 [CNOB, 6-chloro-9-nitro-5-oxo-5H-benzo-(a)-phenoxazine] |  | no significant difference | 7.24 | marked improvement
